In patent US6667311B2, “Nitrogen substituted biaryl purine derivatives as potent antiproliferative agents” (Albany Molecular Research, Inc., priority 2001, dated 2003):
Entries after “also recorded” stand apart in the source; their conditions may differ. Like-named read-outs stand apart in the source and are kept apart here. Values belong to the compound of their own block, whether it stands above or below them.

What was measured:
[1] = tested on: Tumor Cells in Hollow Fibers; experiment: NCI Hollow Fiber Assay; type: in vivo
HeLa S-3 cells = experiment: Inhibition of cell growth, HeLa cells (SRB); type: cell-based, human; conditions: for IC50: Table 2, growth inhibition, 2 days, replicate experiments, read-out: CI50 HeLa Cells
Description: Growth inhibition (GI50) values were measured with HeLa S-3 cells selected for growth on plastic. […] One day later, a control plate was fixed by addition of TCA to 5%. After five rinses with tap water the plate was air dried and stored at 4° C. Test compounds were added to the remaining plates at 10-fold dilutions between 0.01 and 100 μM. Two days later all plates were fixed as described above. Cells were then stained by the addition of 100μl per well of 0.4% sulforhodamine B (SRB) in 1% acetic acid for 30 min at 4° C. Wells were then quickly rinsed 5×with acetic acid (1%) and allowed to air dry. The SRB was then solubilized by the addition of 100 μl per well of unbuffered 10 mM Tris base. Dye was quantified by measuring absorbance at 490 nm on a Molecular Devices kinetic microplate reader. Growth at each inhibitor concentration relative to the untreated control was calculated according to the following equation: percent growth=100×(T−To)/(C−To), where T was the average optical density (OD) of the test wells after 2 days of treatment, To was the average OD of the wells in the control plate on day 0 and C was the average OD of untreated wells. Plots of percent growth versus inhibitor concentration were used to determine the GI50.

SK-MEL-5 = experiment: NCI growth inhibition, SK-MEL-5; type: cell-based, human; conditions: Homo sapiens; SK-MEL-5 (Melanoma)
SK-OV-3 = experiment: NCI growth inhibition, SK-OV-3; type: cell-based, human; conditions: Homo sapiens; SK-OV-3 (Ovarian)
MALME-3M = experiment: NCI growth inhibition, MALME-3M; type: cell-based, human; conditions: Homo sapiens; MALME-3M (Melanoma)
CAKI-1 = experiment: NCI growth inhibition, CAKI-1; type: cell-based, human; conditions: Homo sapiens; CAKI-1 (Renal)
NCI-H460 = experiment: NCI growth inhibition, NCI-H460; type: cell-based, human; conditions: Homo sapiens; NCI-H460 (Non-Small Cell Lung)
CyclinA/cdk2 = CyclinA/cdk2 (Homo sapiens, UniProt P24941); experiment: CyclinA/cdk2 protein kinase assay (histone H1 phosphorylation, immunopurified complex from HeLa); conditions: read-out: IC50 CyclinA cdk2; Table 2; replicate experiments
CyclinB/cdk1 = molecular target: T1, CyclinB/cdk1 (Homo sapiens, UniProt P06493); experiment: CyclinB/cdk1 protein kinase assay (histone H1 phosphorylation, immunopurified complex from HeLa); type: biochemical; conditions: Table 2; replicate experiments
T1 construct: Monoclonal antibody against cyclinB (GNS1) is added to the supernatant; endogenous in cells
T1 sequence (P06493 whole entry): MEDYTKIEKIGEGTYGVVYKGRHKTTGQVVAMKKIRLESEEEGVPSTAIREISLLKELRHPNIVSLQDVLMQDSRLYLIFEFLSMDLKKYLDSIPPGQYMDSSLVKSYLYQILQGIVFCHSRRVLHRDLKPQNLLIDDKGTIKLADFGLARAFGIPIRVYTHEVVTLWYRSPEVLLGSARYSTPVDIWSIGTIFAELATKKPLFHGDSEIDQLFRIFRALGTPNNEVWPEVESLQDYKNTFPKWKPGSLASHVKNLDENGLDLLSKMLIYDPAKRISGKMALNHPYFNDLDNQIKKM
T1 sequence (P14635 whole entry partner): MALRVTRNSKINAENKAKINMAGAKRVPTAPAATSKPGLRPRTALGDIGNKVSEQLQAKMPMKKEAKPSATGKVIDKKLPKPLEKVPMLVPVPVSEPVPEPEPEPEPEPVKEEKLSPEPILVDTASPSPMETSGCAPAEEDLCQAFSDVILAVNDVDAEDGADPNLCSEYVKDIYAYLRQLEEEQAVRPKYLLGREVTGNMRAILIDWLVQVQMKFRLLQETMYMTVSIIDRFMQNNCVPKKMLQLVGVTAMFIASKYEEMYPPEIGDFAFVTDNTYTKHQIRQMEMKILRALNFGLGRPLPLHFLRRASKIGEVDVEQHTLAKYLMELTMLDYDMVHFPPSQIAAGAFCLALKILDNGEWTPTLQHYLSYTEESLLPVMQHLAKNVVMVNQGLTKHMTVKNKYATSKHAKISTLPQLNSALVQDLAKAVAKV

CyclinE/cdk2 = CyclinE/cdk2 (Homo sapiens, UniProt P24941); experiment: CyclinE/cdk2 protein kinase assay (histone H1 phosphorylation, immunopurified complex from HeLa); conditions: read-out: IC50 CyclinE cdk2; Table 2; replicate experiments

Structure (SMILES): CC(C)n1cnc2c(NCc3ccc(-c4ccsc4)cc3)nc(N[C@H]3CC[C@H](N)CC3)nc21 [Compound 12]
Cell Types Killed [1]: H522, MDA-MB-435
IC50 (HeLa S-3 cells): 0.1 nM
GI50 (SK-MEL-5): 14 nM
GI50 (SK-OV-3): 18 nM
GI50 (MALME-3M): 10 nM
GI50 (CAKI-1): 38 nM
GI50 (NCI-H460): 15 nM

Structure (SMILES): CC(C)n1cnc2c(NCc3ccc(-c4ccccn4)cc3)nc(N[C@H]3CC[C@H](N)CC3)nc21 [Compound 78]
Cell Types Killed [1]: H23, H522, OVCAR3, SF29

Structure (SMILES): CC(=O)N[C@H]1CC[C@H](Nc2nc(NCc3ccc(-c4ccccn4)cc3)c3ncn(C(C)C)c3n2)CC1 [Compound 79]
IC50 (CyclinA/cdk2): 10000 nM

Structure (SMILES): CC(C)n1cnc2c(NCc3ccc(-c4ccccc4)nc3)nc(N[C@H]3CC[C@H](N)CC3)nc21 [Compound 86]
Cell Types Killed [1]: OVCAR 3, OVCAR 5, H522

Structure (SMILES): CC(=O)N[C@H]1CC[C@H](Nc2nc(NCc3ccc(-c4ccccn4)nc3)c3ncn(C(C)C)c3n2)CC1 [Compound 94]
Cell Types Killed [1]: COLO 205, OVCAR-3, H522

Structure (SMILES): CC(C)n1cnc2c(NCc3ccc(-c4cccnc4)cc3)nc(N[C@H]3CC[C@H](N)CC3)nc21 [Compound 103]
Cell Types Killed [1]: OVCAR 3,OVCAR 5,; also recorded: H522, MDA-MB-435, SF295

Structure (SMILES): CC(=O)N[C@H]1CC[C@H](Nc2nc(NCc3ccc(-c4ccsc4)cc3)c3ncn(C(C)C)c3n2)CC1 [Compound 113]
Cell Types Killed [1]: H23, H522, OVCAR-3

Structure (SMILES): CC(=O)N[C@H]1CC[C@H](Nc2nc(NCc3ccc(-c4ccsc4)nc3)c3ncn(C(C)C)c3n2)CC1 [Compound 124]
Cell Types Killed [1]: H23, H522, OVCAR-3,; also recorded: MDA-MB-435

Continued, values first:

IC50 (HeLa S-3 cells): 500 nM
Structure (SMILES): CC[C@H](CO)Nc1nc(NCc2ccc(-c3ccccc3)cc2)c2ncn(C(C)C)c2n1 [Compound 73]

IC50 (HeLa S-3 cells): 300 nM
Structure (SMILES): CC(C)n1cnc2c(NCc3ccc(-c4ccccn4)nc3)nc(N[C@H]3CC[C@H](N)CC3)nc21 [Compound 93]

IC50 (CyclinB/cdk1): 10000 nM
Structure (SMILES): CC(=O)N[C@H]1CC[C@H](Nc2nc(NCc3ccc(-c4ccc(C)cc4)cc3)c3ncn(C(C)C)c3n2)CC1 [Compound 97]

IC50 (CyclinA/cdk2): 10000 nM
Structure (SMILES): CC(=O)N[C@@H](C)CNc1nc(NCc2ccc(-c3ccccc3)cc2)c2ncn(C(C)C)c2n1 [Compound 108]

IC50 (HeLa S-3 cells): 20 nM
Structure (SMILES): CC(=O)N[C@H]1CC[C@H](Nc2nc(NCc3ccc(-c4cccc(Cl)c4)cc3)c3ncn(C(C)C)c3n2)CC1 [Compound 110]

IC50 (CyclinE/cdk2): 70 nM
IC50 (CyclinA/cdk2): 200 nM
Structure (SMILES): CC(C)n1cnc2c(NCc3ccc(-c4cccs4)cc3)nc(N[C@H]3CC[C@H](N)CC3)nc21 [Compound 111]

GI50 (HeLa S-3 cells; Homo sapiens, HeLa S3, Table 3, reference compounds in comparison): 7000 to 15000 nM
Structure (SMILES): CC[C@H](CO)Nc1nc(NCc2cccnc2)c2ncn(C(C)C)c2n1 [Compound 127, reference compound]

IC50 (HeLa S-3 cells; Homo sapiens, HeLa S3, 48 h): 400 nM
Structure (SMILES): CC(=O)N[C@H]1CC[C@H](Nc2nc(NCc3ccc(-c4cccc(C)c4)cc3)c3ncn(C(C)C)c3n2)CC1 [Compound 178]

IC50 (HeLa S-3 cells; Homo sapiens, HeLa S3, 48 h): 400 nM
Structure (SMILES): COc1cccc(-c2ccc(CNc3nc(N[C@H]4CC[C@H](NC(C)=O)CC4)nc4c3ncn4C(C)C)cc2)c1 [Compound 180]

IC50 (HeLa S-3 cells; Homo sapiens, HeLa S3, 48 h): 400 nM
Structure (SMILES): CC(C)n1cnc2c(NCc3ccc(-c4ccccc4)cn3)nc(N[C@H]3CC[C@H](N)CC3)nc21 [Compound 229]
